Test results reported in US6130248A, “Tricarboxylic acid-containing oxyalkyl esters and uses thereof” (Bar-ILAn University, priority 1996, dated 2000).

Legend:
IMR-32 (Neuroblastoma) = test: Clonogenicity of established tumor cell lines (soft agar); format: cell-based, human; settings: Homo sapiens; IMR-32 clonogenicity
Description: (§1) Inhibition of tumor growth was tested using cell lines as follows: […]

K562 (Erytholeukemia) = test: as above; format: cell-based, human; settings: Homo sapiens; K562 clonogenicity
Description: as §1

LA1-5S (Neuroblastoma) = test: as above; format: cell-based, human; settings: Homo sapiens; LA1-5S clonogenicity
Description: as §1

[1] = system: LNCaP (Prostate Carcinoma); test: as above; format: cell-based, human; settings: Homo sapiens; LNCaP clonogenicity
Description: as §1

[2] = system: MCF7-40F (Breast Carcinoma); test: as above; format: cell-based, human; settings: Homo sapiens; MCF7-40F clonogenicity
Description: as §1

[3] = system: MCF7-WT (Breast Carcinoma); test: as above; format: cell-based, human; settings: Homo sapiens; MCF7-WT clonogenicity
Description: as §1

NBAS-5 (Neuroblastoma) = test: as above; format: cell-based, human; settings: Homo sapiens; NBAS-5 clonogenicity
Description: as §1

NBL-W-N (Neuroblastoma) = test: as above; format: cell-based, human; settings: Homo sapiens; NBL-W-N clonogenicity
Description: as §1

PC3 (Prostate Carcinoma) = test: as above; format: cell-based, human; settings: Homo sapiens; PC3 clonogenicity
Description: as §1

SK-N-MC (Neuroblastoma) = test: as above; format: cell-based, human; settings: Homo sapiens; SK-N-MC clonogenicity
Description: as §1

SK-N-SH (Neuroblastoma) = test: as above; format: cell-based, human; settings: Homo sapiens; SK-N-SH clonogenicity
Description: as §1

SMS-KAN (Neuroblastoma) = test: as above; format: cell-based, human; settings: Homo sapiens; SMS-KAN clonogenicity
Description: as §1

[4] = system: 53 primary tumor cell lines; test: Inhibition of clonogenicity of primary tumor cells; format: cell-based, human; settings: Homo sapiens
Description: The tested tumor cells were from 11 non-small cell lung carcinomas, 10 breast carcinomas, 10 gastric carcinomas, 10 ovarian carcinomas, and 10 CNS tumors.

[5] = system: established tumor cell lines; test: Clonogenicity of established tumor cell lines, all lines together; format: cell-based, human; settings: in words
Description: as §1

[6] = system: P3HR-1 EBV-positive lymphoma cells; test: [3H]-thymidine incorporation in EBV-positive lymphoma cells; format: cell-based, human; settings: combination with GC, 72 hours
Description: The effect of GOMB to AB was compared on EBV virus-associated tumors. EBV-positive cells from P3HR-1, a human lymphoma cell line, were incubated in growth medium with the specified concentration of GOMB, AB, ganciclovir (GC), or combination of these, for 72 hours, seeded in 96-well plates and pulsed with 1 μCi [^3 H]-thymidine/well during the last 16 hours of exposure to the compounds. Cells were harvested with a cell harvester, using glass microfiber filters. The incorporation of [^3 H]-thymidine was determined by retention of the acid insoluble fraction on filters and is expressed as CPM.

[7] = system: Au565 breast carcinoma cells; test: Differentiation by lipid staining; format: cell-based, human; settings: 10 μM
Description: Lipid staining and/or immunochemical staining of casein can be used as a marker for cellular differentiation of breast cancer cells (Bacus et al., Md. Carcin. 3:350-362, 1990). Casein detection can be done by histochemical staining of breast cancer cells using a human antibody to human casein as described by Cheung et al., J. Clin. Invest. 75:1722-1728,which is incorporated by reference in its entirety.
In the case of the human breast carcinoma cell line Au565, 100%. Of the cells treated with 10 μM GOMB were positive for lipid staining whereas less than 1% of cells treated with the same concentration of AB were positive for lipid staining.

CFPAC cells = test: SRB cell proliferation assay; format: cell-based
Description: (§2) The inhibition of cell proliferation was measured in the indicated cancer cell lines using the sulforhoamine B (SRB) assay as described by Monks et al., J. Natl. Can. Inst. […] The SRB assay is used to screen for anti-cancer drugs.

HL-60 cells = test: SRB cell proliferation assay; format: cell-based; settings: Homo sapiens; HL-60, SRB
Description: as §2

HT-29 cells = test: SRB cell proliferation assay; format: cell-based; settings: Homo sapiens; HT-29, SRB
Description: as §2

MCF7 cells = test: SRB cell proliferation assay; format: cell-based; settings: Homo sapiens
Description: as §2

MCF-7 cells (WAF) = test: Apoptosis in breast cancer cells, staining with WAF antibody / Western blot; format: cell-based, human; settings: 100 μM
Description: Induction of apoptosis by COMB and AB in MCF-7 cells was evaluated by staining cells with the WAF antibody and by Western blot analysis as described by Bacus et al., 1996, Oncogene 12:2535-2547.

K562 cells (HbF) [8] = test: Hb-containing K562 cells by benzidine staining; format: cell-based, human; settings: 0.05 mM, 5 days
Description: Hb Measurement: HB was measured by benzidine staining of K562 cells after 5 days exposure to GOMB or AB according to the procedure of Fibach et al. (1989) [full cite]. Quantitative measurement of HbF in K562 culture or human erythroid cultures was determined by ion-exchange high pressure liquid chromatography (HPLC) as described by Fibach et al., Blood 81:1630-1635, 1993.
(§3) K562 cells: K562 is an erthroblast cell line that develops some properties of erythroid, megakaryocyte or monocyte cells, depending on the specific stimulus, when induced by different chemicals. K562 cells were grown in RPMI with 10% FCS, supplemented with 2 mM glutamine. Cells were incubated at 37° C. in a humidified, 5% CO2 incubator.

K562 cells (HbF) [9] = test: HbF synthesis in K562 cells (ion-exchange HPLC); format: cell-based, human
Description: as §3

[10] = system: β-thalassemia and sickle-cell anemia; settings: β-globin disorders; cited from earlier work

`CCCC(=O)O` [AB, arginine butyrate, reference compound] gave an IC50 (IMR-32 (Neuroblastoma)) of 881 µM, an IC90 (IMR-32 (Neuroblastoma)) of 3570 µM and an IC50 (K562 (Erytholeukemia)) of 772 µM. It also gave an IC50 (LA1-5S (Neuroblastoma)) of 1630 µM, an IC90 (LA1-5S (Neuroblastoma)) of 2680 µM and an IC50 [1] of 780 µM. For the same compound, the IC90 [1] was 6700 µM, the IC50 [2] was 817 µM and the IC90 [2] was 3180 µM. For the same compound, the IC50 [3] was 1500 µM, the IC90 [3] was 9470 µM and the IC50 (NBAS-5 (Neuroblastoma)) was 883 µM. The IC90 (NBAS-5 (Neuroblastoma)) was 13000 µM, the IC50 (NBL-W-N (Neuroblastoma)) was 489 µM and the IC90 (NBL-W-N (Neuroblastoma)) was 3070 µM. The IC50 (PC3 (Prostate Carcinoma)) was 226 µM, the IC50 (SK-N-MC (Neuroblastoma)) was 215 µM and the IC90 (SK-N-MC (Neuroblastoma)) was 1310 µM. It also gave an IC50 (SK-N-SH (Neuroblastoma)) of 998 µM, an IC90 (SK-N-SH (Neuroblastoma)) of 3400 µM and an IC50 (SMS-KAN (Neuroblastoma)) of 1140 µM. For the same compound, the IC90 (SMS-KAN (Neuroblastoma)) was 2080 µM, the IC90 [4] was 2120 µM and the “inhibition of cell proliferation, dose dependence” value [5] was “inhibit cell proliferation in a dose-dependent manner”. The “interaction with ganciclovir (GC) in inhibiting proliferation” value [6] was “interact synergistically with GC”, the “cells positive for lipid staining” value [7] was “less than 1%” and the IC50 (CFPAC cells) was > 4000 µM. For the same compound, the IC90 (CFPAC cells) was > 4000 µM, the IC50 (HL-60 cells) was 1640 µM and the IC90 (HL-60 cells) was 3460 µM. For the same compound, the IC50 (HT-29 cells) was > 4000 µM, the IC90 (HT-29 cells) was > 4000 µM and the IC50 (MCF7 cells) was > 4000 µM. For the same compound, the IC90 (MCF7 cells) was > 4000 µM, the “% Cells Expressing WAF” value (MCF-7 cells (WAF)) was 23% and the “Percentage K562 Cells Containing HbF” value (K562 cells (HbF) [8]) was 3 ± 2%. The “HbF Synthesis in K562 Cells” value (K562 cells (HbF) [9]; 0.01 mM) was 0.96 µg/mL, the “HbF Synthesis in K562 Cells” value (K562 cells (HbF) [9]; 0.05 mM) was 0.95 µg/mL and the “HbF Synthesis in K562 Cells” value (K562 cells (HbF) [9]; 0.10 mM) was 1.8 µg/mL. For the same compound, the “HbF Synthesis in K562 Cells” value (K562 cells (HbF) [9]; 0.50 mM) was 3.69 µg/mL and the clinical efficacy [10] was “moderate efficacy”.
